Here are results for 20 compounds from patent US20260365653A1, “IRREVERSIBLE MUTEGFR INHIBITORS” (Bayer Aktiengesellschaft, priority 2022, published 2026).

Test [1] deals with T1, mutEGFR (D770_N771insNPG, T790) (Homo sapiens, UniProt P00533, INS770NPG/T790M).
T1 construct: exact insNPG construct not described; in-house EGFR proteins were N-terminal GST fusions from baculovirus/insect cells (borders R669-A1210 given only for WT, insSVD, insASV)
Description: mutEGFR (D770_N771insNPG, T790) kinase assay. Type of test: biochemical. Conditions: Table 2a, D770_N771insNPG. The source says: The different EGFR proteins used in the biochemical kinase activity inhibition assays were generated inhouse by expression in insect cells using Baculo Virus system and subsequent purification as described in the following paragraphs.
The cDNAs encoding the various protein sequences from human EGFR human (P00533) were optimized for expression in eukaryotic cells and synthesized by the GeneArt Technology at Life Technologies.

Test [2] addresses T2, mutEGFR (D770_N771insSVD) (Homo sapiens, UniProt P00533, DUP768-770).
T2 construct: GST-EGFR #3 (SVD between D770 and N771); made in house; host or cells: Sf9 insect cells (baculovirus)
Description: Exon20-Mutant-EGFR (D770_N771insSVD) kinase assay (TR-FRET). In kind it is biochemical. Conditions: mutEGFR (D770_N771insSVD) kinase assay IC50, Table 2a; D770_N771insSVD; 2 mM ATP. On the technique in general: In TR-FRET formats the signal depends on donor and acceptor labels being close together.

The subject of test [3] is BA/F3 (insSVD) cells. The test is described as follows: Ba/F3-EGFR-insSVD cell survival assay (Cell Titer-Glo). Type of test: cell-based. The settings on record: Table 3a, cell survival, Cell Titer-Glo, with 10 ng/ml EGF, without IL-3. The method, then: Cellular Data Description (WT, insSVD, insSVD T790M) 293T cells from ATCC were transfected with pBABEpuro expression constructs for WT EGFR or EGFR-insSVD, or EGFR-insSVD T790M, and pCL-Eco packaging vector using Fugene-6 transfection reagent from Promega. Plates were incubated at 37° C. for 48 h. Retrovirus was harvested by filtering the media supernatant through a 0.45 μm filter.
Ba/F3 cells purchased from DSMZ were grown in RPMI+10% FBS+10 ng/ml IL-3 and infected with filtered retroviral supernatant at a 1:2 dilution. Polybrene was added to a concentration of 8 μg/mL, plates were spun for 90 min, and incubated for 16 h at 37° C. 2 μg/mL puromycin was added to the infected cells 24 h after infection and cells were continually grown in the presence of puromycin and 10 ng/ml IL-3. Following stably expressing Ba/F3 cell lines were generated: Ba/F3-EGFR-WT, Ba/F3-EGFR-insSVD, Ba/F3-EGFR-insSVD T790M, (Ba/F3-vector-control).
For cell survival assays, Ba/F3 cells were grown to a density of 1-2 million cells per mL, spun down and resuspended in media without IL-3, and replated at a concentration of 200,000-500,000 cells per mL. The cells ectopically expressing WT EGFR, EGFR-insSVD, or EGFR-insSVD T790M were plated with 10 ng/ml Millipore Culture grade EGF. The cells ectopically expressing pBABEpuro empty vector were plated with 10 ng/mL IL-3.
2 days later, cells were plated in 50 µL in a 384 well plate at a concentration of 4000 cells per well for cells assayed in the absence of IL-3 and 2000 cells per well for cells assayed in the presence of IL-3. 100 nL of compound was added to each well using a 100 nL pin head, and plates were incubated at 37° C. for 48 h.
Cell viability was measured by adding 20 μL of Cell Titer-Glo Luminescent Cell Viability Reagent diluted 1:3 in PBS. Plates were sealed with Perkin Elmer Top-Seal, inverted several times to mix, and immediately centrifuged at 1000 rpm for 2 min. Plates were incubated in low light conditions for 8-10 min and luminescence was measured.

T2 sequence (P00533 with tags, fused parts or gaps DUP768-770): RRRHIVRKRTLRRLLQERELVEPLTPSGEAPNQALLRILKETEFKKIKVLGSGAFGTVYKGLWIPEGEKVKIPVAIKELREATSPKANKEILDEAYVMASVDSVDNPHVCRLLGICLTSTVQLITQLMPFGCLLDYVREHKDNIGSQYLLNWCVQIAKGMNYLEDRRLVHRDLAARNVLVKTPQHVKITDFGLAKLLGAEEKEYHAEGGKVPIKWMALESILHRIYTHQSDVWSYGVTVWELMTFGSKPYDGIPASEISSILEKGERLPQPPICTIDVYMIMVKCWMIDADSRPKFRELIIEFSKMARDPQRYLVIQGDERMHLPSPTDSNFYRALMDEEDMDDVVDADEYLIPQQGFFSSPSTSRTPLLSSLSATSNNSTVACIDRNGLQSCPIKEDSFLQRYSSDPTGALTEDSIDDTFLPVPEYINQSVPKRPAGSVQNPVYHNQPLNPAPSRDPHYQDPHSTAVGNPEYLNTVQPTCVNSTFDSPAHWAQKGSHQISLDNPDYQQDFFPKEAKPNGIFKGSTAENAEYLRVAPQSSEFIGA
T1 sequence (P00533 with tags, fused parts or gaps INS770NPG/T790M limits assumed): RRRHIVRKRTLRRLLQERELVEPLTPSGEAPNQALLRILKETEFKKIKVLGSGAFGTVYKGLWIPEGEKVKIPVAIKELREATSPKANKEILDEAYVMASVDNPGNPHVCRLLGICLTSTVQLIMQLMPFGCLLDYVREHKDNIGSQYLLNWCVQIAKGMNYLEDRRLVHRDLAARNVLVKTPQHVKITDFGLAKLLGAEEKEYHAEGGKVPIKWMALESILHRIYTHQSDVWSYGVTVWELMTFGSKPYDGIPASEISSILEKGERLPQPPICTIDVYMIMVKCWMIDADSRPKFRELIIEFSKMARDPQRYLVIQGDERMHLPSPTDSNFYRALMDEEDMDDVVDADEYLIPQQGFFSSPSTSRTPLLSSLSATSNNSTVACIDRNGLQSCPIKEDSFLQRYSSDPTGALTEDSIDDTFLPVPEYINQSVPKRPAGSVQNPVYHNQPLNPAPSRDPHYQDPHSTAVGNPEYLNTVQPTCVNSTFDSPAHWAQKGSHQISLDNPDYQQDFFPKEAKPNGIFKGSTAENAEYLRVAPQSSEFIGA

What is called IC50 is the midpoint of a concentration-inhibition curve. High values mean a need for much substance, low ones inhibition by little substance. For the compound `C=CC(=O)N1CCn2nc(-c3cccc(C#N)c3)c(-c3ccnc4[nH]cc(C)c34)c2C1` [Example 45], the IC50 stood at 158 nM in test [1]; 973 nM in test [2]; 218 nM in test [3] (Mus musculus, BaF3, 48 h).
In the case of `C=CC(=O)N1CCn2nc(-c3ccc(Cl)c(CC)c3)c(-c3ccncc3)c2C1` [Example 190, 1-[2-(4-chloro-3-ethylphenyl)-3-(pyridin-4-yl)-6,7-dihydropyrazolo[1,5-a]pyrazin-5(4H)-yl]prop-2-en-1-one], the IC50 is 3.03 nM in test [1]; 1.03 nM in test [2]; 172 nM in test [3] (Mus musculus, BaF3, 48 h).
The corresponding values for `C=CC(=O)N1CCn2nc(-c3ccccc3OC)c(-c3ccncc3)c2C1` [Example 39, 1-[2-(2-methoxyphenyl)-3-(pyridin-4-yl)-6,7-dihydropyrazolo[1,5-a]pyrazin-5(4H)-yl]prop-2-en-1-one] are 18.3 nM, 37.6 nM and 622 nM.
With `C=CC(=O)N1CCn2nc(-c3ccc4occc4c3)c(-c3ccncc3)c2C1` [Example 194, 1-[2-(1-benzofuran-5-yl)-3-(pyridin-4-yl)-6,7-dihydropyrazolo[1,5-a]pyrazin-5(4H)-yl]prop-2-en-1-one], the IC50 in test [1] came out at 0.399 nM; in test [2] it was 0.144 nM; in test [3] (Mus musculus, BaF3, 48 h), 15.3 nM.
`C=CC(=O)N1CCn2nc(-c3ccc4cc(F)sc4c3)c(-c3ccnc4[nH]cc(C)c34)c2C1` [Example 181, 1-[2-(2-fluoro-1-benzothiophen-6-yl)-3-(3-methyl-1H-pyrrolo[2,3-b]pyridin-4-yl)-6,7-dihydropyrazolo[1,5-a]pyrazin-5(4H)-yl]prop-2-en-1-one]: the IC50 in test [2] worked out at 59.6 nM; in test [3] (Mus musculus, BaF3, 48 h) it was 64.1 nM.
For the compound `C=CC(=O)N1CCn2nc(-c3ccc(Cl)cc3F)c(-c3ccncc3)c2C1C` (single isomer, unassigned; isomer 1) [Example 278, 1-[2-(4-chloro-2-fluorophenyl)-4-methyl-3-(pyridin-4-yl)-6,7-dihydropyrazolo[1,5-a]pyrazin-5(4H)-yl]prop-2-en-1-one (isomer 1)], the figures for the IC50 in test [1], in test [2] and in test [3] (48 h) were 0.551 nM, 0.204 nM and 9.07 nM, respectively.
Take `CC(C)(C)OC(=O)NCC#CC(=O)N1CCn2nc(-c3ccc(F)cc3)c(-c3ccncc3)c2C1` [Example 90, tert-butyl {4-[2-(4-fluorophenyl)-3-(pyridin-4-yl)-6,7-dihydropyrazolo[1,5-a]pyrazin-5(4H)-yl]-4-oxobut-2-yn-1-yl}carbamate]: the IC50 in test [1] turned out to be 5.34 nM; in test [2], 2.08 nM; in test [3] (Mus musculus, BaF3, 48 h) it was 166 nM.
`C=CC(=O)N1CCn2nc(-c3ccc(Cl)cc3CO)c(-c3ccncc3)c2C1` [Example 191, 1-{2-[4-chloro-2-(hydroxymethyl)phenyl]-3-(pyridin-4-yl)-6,7-dihydropyrazolo[1,5-a]pyrazin-5(4H)-yl}prop-2-en-1-one]: the IC50 in test [1] came to 1.26 nM; in test [2] it was 0.626 nM; in test [3] (Mus musculus, BaF3, 48 h), 32.9 nM.
Consider `C=CC(=O)N1Cc2c(-c3ccncc3)c(-c3ccc(C(F)(F)F)cc3F)nn2C[C@H]1C` [Example 125, 1-[(6R)-2-[2-fluoro-4-(trifluoromethyl)phenyl]-6-methyl-3-(pyridin-4-yl)-6,7-dihydropyrazolo[1,5-a]pyrazin-5(4H)-yl]prop-2-en-1-one], for which the concentration for half-maximal inhibition (IC50) came to 1.12 nM in test [2] and 45.5 nM in test [3] (Mus musculus, BaF3, 48 h).
For the compound `CN1CCN(C/C=C/C(=O)N2CCn3nc(-c4ccc(F)cc4)c(-c4ccncc4)c3C2)CC1` [Example 82, (2E)-1-[2-(4-fluorophenyl)-3-(pyridin-4-yl)-6,7-dihydropyrazolo[1,5-a]pyrazin-5(4H)-yl]-4-(4-methylpiperazin-1-yl) but-2-en-1-one], the IC50 in test [2] was 29.6 nM; in test [3] (Mus musculus, BaF3, 48 h), 739 nM.
On the same counts, the results for `CCNC/C=C/C(=O)N1CCn2nc(-c3ccc(F)cc3)c(-c3ccncc3)c2C1` [Example 81, (2E)-4-(ethylamino)-1-[2-(4-fluorophenyl)-3-(pyridin-4-yl)-6,7-dihydropyrazolo[1,5-a]pyrazin-5(4H)-yl]but-2-en-1-one] are 4.15 nM and 134 nM.
Take `C=CC(=O)N1C(C)c2c(-c3ccncc3)c(-c3ccc(Cl)cc3F)nn2C[C@H]1C` (single isomer, unassigned; isomer 1) [Example 290]: the values for the IC50 in test [2] and in test [3] (48 h) were 1180 nM and 3430 nM, respectively.
For `CNC/C=C/C(=O)N1CCn2nc(-c3ccc(F)cc3)c(-c3ccncc3)c2C1` [Example 80, (2E)-1-[2-(4-fluorophenyl)-3-(pyridin-4-yl)-6,7-dihydropyrazolo[1,5-a]pyrazin-5(4H)-yl]-4-(methylamino)but-2-en-1-one], the IC50 came to 19.4 nM in test [2] and 1370 nM in test [3] (Mus musculus, BaF3, 48 h).
In the case of `C=CC(=O)N1CCn2nc(-c3cccc(CO)c3)c(-c3ccncc3)c2C1` [Example 121, 1-{2-[3-(hydroxymethyl)phenyl]-3-(pyridin-4-yl)-6,7-dihydropyrazolo[1,5-a]pyrazin-5(4H)-yl}prop-2-en-1-one], the IC50 in test [2] was found to be 1.88 nM; in test [3] (Mus musculus, BaF3, 48 h), 213 nM.
As for `Cc1c[nH]c2nccc(-c3c(-c4ccc5cc(F)sc5c4)nn4c3CN(C(=O)/C=C/CN(C)C)CC4)c12` [Example 187, (2E)-4-(dimethylamino)-1-[2-(2-fluoro-1-benzothiophen-6-yl)-3-(3-methyl-1H-pyrrolo[2,3-b]pyridin-4-yl)-6,7-dihydropyrazolo[1,5-a]pyrazin-5(4H)-yl]but-2-en-1-one], the IC50 in test [2] was 30 nM.
Regarding `C=CC(=O)N1C(C)c2c(-c3ccncc3)c(-c3ccc(Cl)cc3F)nn2C[C@H]1C` (single isomer, unassigned; isomer 2) [Example 291], the IC50 in test [2] amounted to 1.11 nM; in test [3] (48 h), 53 nM.
Take `Cc1c[nH]c2nccc(-c3c(-c4cccc(C(F)(F)F)c4)nn4c3CN(C(=O)/C=C/CN(C)C)CC4)c12` [Example 185, (E)-4-(dimethylamino)-1-(3-(3-methyl-1H-pyrrolo[2,3-b]pyridin-4-yl)-2-(3-(trifluoromethyl)phenyl)-6,7-dihydropyrazolo[1,5-a]pyrazin-5(4H)-yl) but-2-en-1-one]: the IC50 in test [2] was found to be 233 nM; in test [3] (Mus musculus, BaF3, 48 h) it was 68.8 nM.
The corresponding values for `CN(C/C=C/C(=O)N1CCn2nc(-c3ccc(Cl)cc3)c(-c3ccncc3)c2C1)CCO` [Example 170, (2E)-1-[2-(4-chlorophenyl)-3-(pyridin-4-yl)-6,7-dihydropyrazolo[1,5-a]pyrazin-5(4H)-yl]-4-[(2-hydroxyethyl)(methyl)amino]but-2-en-1-one] are 0.38 nM and 190 nM.
The corresponding values for `C=CC(=O)N1CCn2nc(-c3cccc(C(F)(F)F)c3)c(-c3ccnc4[nH]cc(C)c34)c2C1` [Example 178, 1-(3-(3-methyl-1H-pyrrolo[2,3-b]pyridin-4-yl)-2-(3-(trifluoromethyl)phenyl)-6,7-dihydropyrazolo[1,5-a]pyrazin-5(4H)-yl) prop-2-en-1-one] are 207 nM and 58.6 nM.
On the same counts, the results for `C=CC(=O)N1CCn2nc(-c3cccc(Cl)c3F)c(-c3ccnc4[nH]cc(C)c34)c2C1` [Example 176, 1-[2-(3-chloro-2-fluorophenyl)-3-(3-methyl-1H-pyrrolo[2,3-b]pyridin-4-yl)-6,7-dihydropyrazolo[1,5-a]pyrazin-5(4H)-yl]prop-2-en-1-one] are 166 nM and 62.7 nM.
